Measurements from ChEMBL document CHEMBL1155972, “From natural products to achiral drug prototypes: potent thrombin inhibitors based on P2/P3 dihydropyrid-2-one core motifs” (Bioorg Med Chem Lett, 2009).

Columns and labels:
[1] = target: Prothrombin (Homo sapiens, UniProt P00734); experiment: Inhibition of human thrombin
[2] = Inhibition of bovine trypsin; parameters: species or system Bos taurus
[3] = Dissociation constant, pKa of the compound; format: physicochemical

Row | Structure (SMILES) | IC50 [1] | IC50 [2] | pKa [3]
1 | CC1=C(CC(=O)NCc2ccc(C(=N)N)cc2)C(=O)N(NS(=O)(=O)c2ccccc2)CC1 | 42 nM | 766 nM | 
2 | COc1cccc(S(=O)(=O)NN2CCC(C)=C(CC(=O)NCc3ccc(C(=N)N)cc3)C2=O)c1 | 11 nM | 860 nM | 8.8
3 | Cc1ccn(NS(=O)(=O)c2cccc3ccccc23)c(=O)c1CC(=O)NCc1ccc(C(=N)N)cc1 | 17100 nM | 5.8 nM | 
4 | CC1=C(CC(=O)NCc2ccc(C(=N)N)cc2)C(=O)N(NS(=O)(=O)c2cc(Cl)ccc2Cl)CC1 | 10 nM | 1250 nM | 
5 | CC[C@@H](C)[C@@H](NC(=O)[C@H](O)Cc1ccccc1)C(=O)N1[C@H](C(=O)NCc2ccc(C(=N)N)cc2)C[C@@H]2CCCC[C@@H]21 | 3.3 nM |  | 
6 | COc1cccc(S(=O)(=O)Nn2ccc(C)c(CC(=O)NCc3ccc(C(=N)N)cc3)c2=O)c1 |  | 15600 nM | 
7 | Cc1ccn(NS(=O)(=O)c2ccccc2)c(=O)c1CC(=O)NCc1ccc(C(=N)N)cc1 |  | 5770 nM | 5.9
8 | Cc1ccc(C)c(S(=O)(=O)Nn2ccc(C)c(CC(=O)NCc3ccc(C(=N)N)cc3)c2=O)c1 |  | 7130 nM | 
9 | Cc1ccn(NS(=O)(=O)Cc2ccccc2)c(=O)c1CC(=O)NCc1ccc(C(=N)N)cc1 | 3960 nM | 14900 nM | 
10 | N=C(N)c1ccc(CNC(=O)[C@@H]2C[C@@H]3CCCC[C@@H]3N2C(=O)[C@H](NC(=O)[C@H](O)Cc2ccccc2)C(C2CCCCC2)C2CCCCC2)cc1 | 3.4 nM |  | 
11 | COc1cc(C)ccc1S(=O)(=O)NN1CCC(C)=C(CC(=O)NCc2ccc(C(=N)N)cc2)C1=O | 44 nM | 117 nM | 
12 | CC(C)[C@@H](Cl)[C@@H](NC(=O)[C@H](O)Cc1ccccc1)C(=O)N1[C@H](C(=O)NCc2ccc(C(=N)N)cc2)C[C@@H]2CCCC[C@@H]21 | 1.6 nM |  | 
13 | CC1=C(CC(=O)NCc2ccc(C(=N)N)cc2)C(=O)N(NS(=O)(=O)c2ccc(Cl)cc2F)CC1 | 106 nM | 683 nM | 
14 | CC1=C(CC(=O)NCc2ccc(C(=N)N)cc2)C(=O)N(NS(=O)(=O)c2cc(C)ccc2C)CC1 | 6 nM | 374 nM | 8.7
15 | COc1cc(C)ccc1S(=O)(=O)Nn1ccc(C)c(CC(=O)NCc2ccc(C(=N)N)cc2)c1=O |  | 2020 nM | 6.7
16 | CC1=C(CC(=O)NCc2ccc(C(=N)N)cc2)C(=O)N(NS(=O)(=O)c2cccc3ccccc23)CC1 | 915 nM | 8.2 nM | 
17 | CC1=C(CC(=O)NCc2ccc(C(=N)N)cc2)C(=O)N(NS(=O)(=O)c2c(C)cccc2Cl)CC1 | 3 nM | 286 nM | 
18 | CO[C@H](COS(=O)(=O)[O-])C(=O)N[C@@H](C(=O)N1[C@H](C(=O)NCCC2=CC[N+](=C(N)N)C2)C[C@@H]2C[C@H](O)[C@@H](O)C[C@@H]21)[C@H](Cl)C(C)C [CHLORODYSINOSIN A] | 5.8 nM |  | 
19 | CO[C@H](COS(=O)(=O)[O-])C(=O)N[C@H](CC(C)C)C(=O)N1[C@H](C(=O)NCCC2=CC[N+](=C(N)N)C2)C[C@@H]2C[C@H](O)[C@@H](O)C[C@@H]21 [DYSINOSIN A] | 46 nM |  | 
